Test system: HCV 1b genotype
Assay: HCV Replicon assay (HCV 16-377-neo replicon cells)
Type: cell-based
Conditions: Hepatitis C virus; HCV 1b genotype replicon cells; read-out: EC50 ranges against HCV 1b
Protocol: An HCV Replion assay was utilized in the present disclosure, and was prepared, conducted and validated as described in commonly owned PCT/US2006/022197 and in O'Boyle et. al. Antimicrob Agents Chemother. 2005 Apr;49(4): 1346-53.
HCV 16-377-neo replicon cells were used to test the currently described compound series as well as cells resistant to compound A due to a Y2065H mutation in NS5A (described in application PCT/US2006/022197). The compounds tested were determined to have more than 10-fold less inhibitory activity on cells resistant to compound A than wild-type cells indicating a related mechanism of action between the two compound series. Thus, the compounds of the present disclosure can be effective to inhibit the function of the HCV NS5A protein and are understood to be as effective in combinations as previously described in application PCT/US2006/022197 and commonly owned WO/O4014852. Further, the compounds of the present disclosure can be effective against the HCV 1b genotype. It should also be understood that the compounds of the present disclosure can inhibit multiple genotypes of HCV. […] In one embodiment compounds of the present disclosure are active against the 1a, 1b, 2a, 2b, 3a, 4a, and 5a genotypes.

Q: `COC(=O)N[C@H](C(=O)N1CCC[C@H]1c1nc(-c2ccc(-c3ccc(-c4[nH]c([C@@H]5CCCN5C(=O)[C@@H](NC(=O)OC)C(C)C)nc4C)cc3)cc2)c(C)[nH]1)C(C)C` [Example E5l, methyl ((1S)-1-(((2S)-2-(4-(4'-(2-((2S)-1-((2S)-2-((methoxycarbonyl)amino)-3-methylbutanoyl)-2-pyrrolidinyl)-4-methyl-1H-imidazol-5-yl)-4-biphenylyl)-5-methyl-1H-imidazol-2-yl)-1-pyrrolidinyl)carbonyl)-2-methylpropyl)carba mate] was tested. Which EC50 did it give?
A: The EC50 was 0.001 to 0.999 nM.

Q: With `COC(=O)N[C@@H](C(=O)N1CC2(CC2)C[C@H]1c1nc(-c2ccc(-c3ccc(-c4c[nH]c([C@@H]5CC6(CC6)CN5C(=O)[C@H](NC(=O)OC)C(C)C)n4)cc3)cc2)c[nH]1)C(C)C` [Example M149, methyl ((1R)-1-(((6S)-6-(4-(4'-(2-((6S)-5-((2R)-2-((methoxycarbonyl)amino)-3-methylbutanoyl)-5-azaspiro[2.4]hept-6-yl)-1H-imidazol-4-yl)-4-biphenylyl)-1H-imidazol-2-yl)-5-azaspiro[2.4]hept-5-yl)carbonyl)-2-methylpropyl)carbamate] as the compound, how does the EC50 read?
A: The EC50 was 1 to 99 nM.

Q: How did the EC50 turn out when `COC(=O)N[C@@H](C)C(=O)N1[C@@H]2C[C@@H]2C[C@H]1c1ncc(-c2ccc(-c3ccc(-c4cnc([C@@H]5C[C@H]6C[C@H]6N5C(=O)[C@H](C)NC(=O)OC)[nH]4)cc3)cc2)[nH]1` [Example M132, methyl ((1S)-2-((1R,3S,5R)-3-(4-(4'-(2-((1R,3S,SR)-2-(N(methoxycarbonyl)-L-alanyl)-2-azabicyclo[3.1.0]hex-3-yl)-1H-imidazol-4-yl)-4-biphenyl)-1H-imidazol-2-yl)-2-azabicyclo[3.1.0]hex-2-yl)-1-methyl-2-oxoethyl)carbamate] was run?
A: Its EC50 is 0.001 to 0.999 nM.

Q: `CC[C@H](NC(=O)OC)C(=O)N1[C@@H]2C[C@@H]2C[C@H]1c1nc(-c2ccc(-c3ccc(-c4c[nH]c([C@@H]5C[C@H]6C[C@H]6N5C(=O)[C@H](CC)NC(=O)OC)n4)cc3)cc2)c[nH]1` [Example M133, dimethyl (4,4'-biphenyldiylbis(1H-imidazole-4,2-diyl(1R,3S,5R)-2-azabicyclo[3.1.0]hexane-3,2-diyl((2S)-1-oxo-1,2-butanediyl)))biscarbamate] was tested. Which EC50 did it give?
A: Its EC50 is 0.001 to 0.999 nM.

Q: With `CC(C)[C@H](N)C(=O)N1[C@@H]2C[C@@H]2C[C@H]1c1nc(-c2ccc(-c3ccc(-c4cnc([C@@H]5C[C@H]6C[C@H]6N5C(=O)[C@@H](N)C(C)C)[nH]4)cc3)cc2)c[nH]1` [Example M140a-i, (2S)-1-((1R,3S,5R)-3-(4-(4'-(2-((1R,3S,5R)-2-((2S)-2-amino-3-methylbutanoyl)-2-azabicyclo[3.1.0]hex-3-yl)-1H-imidazol-5-yl)-4-biphenylyl)-1H-imidazol-2-yl)-2-azabicyclo[3.1.0]hex-2-yl)-3-methyl-1-oxo-2-butanamine] as the compound, how does the EC50 read?
A: Its EC50 is 1 to 99 nM.

Q: With `COC(=O)N[C@H](C(=O)N1CCC[C@H]1c1nc(-c2ccc(-c3ccc(-c4[nH]c([C@@H]5CCCN5C(=O)[C@@H](NC(=O)OC)[C@@H](C)OC)nc4C)cc3)cc2)c[nH]1)[C@@H](C)OC` [Example E5f, methyl ((1S,2R)-2-methoxy-1-(((2S)-2-(4-(4'-(2-((2S)-1-(N-(methoxycarbonyl)-O-methyl-L-threonyl)-2-pyrrolidinyl)-4-methyl-1H-imidazol-5-yl)-4-biphenylyl)-1H-imidazol-2-yl)-1-pyrrolidinyl)carbonyl)propyl)carbamate] as the compound, how does the EC50 read?
A: The EC50 was 0.001 to 0.999 nM.

Q: Which EC50 does the source give for `COC(=O)N[C@@H](C(=O)N1[C@@H]2C[C@@H]2C[C@H]1c1nc(-c2ccc(-c3ccc(-c4c[nH]c([C@@H]5C[C@H]6C[C@H]6N5C(=O)[C@H](NC(=O)OC)C(C)C)n4)cc3)cc2)c[nH]1)C(C)C` [Example M136, methyl ((1R)-1-(((1R,3S,5R)-3-(4-(4'-(2-((1R,3S,5R)-2-((2R)-2-((methoxycarbonyl)amino)-3-methylbutanoyl)-2-azabicyclo[3.1.0]hex-3-yl)-1H-imidazol-4-yl)-4-biphenylyl)-1H-imidazol-2-yl)-2-azabicyclo[3.1.0]hex-2-yl)carbonyl)-2-methylpropyl)carbamate] here?
A: Its EC50 is 1 to 99 nM.

Q: How did the EC50 turn out when `COC(=O)N[C@H](C(=O)N1CCC[C@H]1c1nc(-c2ccc(-c3ccc(-c4[nH]c([C@@H]5CCCN5C(=O)[C@@H](NC(=O)OC)C(C)C)nc4CC(OC)OC)cc3)cc2)c[nH]1)C(C)C` [Example J14a.1, methyl ((1S)-1-(((2S)-2-(4-(2,2-dimethoxyethyl)-5-(4'-(2-((2S)-1-((2S)-2-((methoxycarbonyl)amino)-3-methylbutanoyl)-2-pyrrolidinyl)-1H-imidazol-4-yl)-4-biphenylyl)-1H-imidazol-2-yl)-1-pyrrolidinyl)carbonyl)-2-methylpropyl)carba mate] was run?
A: The EC50 was 0.001 to 0.999 nM.

Q: How did the EC50 turn out when `COC(=O)N[C@@H](C)C(=O)N1CC2(CC2)C[C@H]1c1nc(-c2ccc(-c3ccc(-c4c[nH]c([C@@H]5CC6(CC6)CN5C(=O)[C@H](C)NC(=O)OC)n4)cc3)cc2)c[nH]1` [Example M147, methyl ((1S)-2-((6S)-6-(4-(4'-(2-((6S)-5-(N-(methoxycarbonyl)-L-alanyl)-5-azaspiro[2.4]hept-6-yl)-1H-imidazol-4-yl)-4-biphenylyl)-1H-imidazol-2-yl)-5-azaspiro[2.4]hept-5-yl)-1-methyl-2-oxoethyl)carbam ate] was run?
A: Its EC50 is 0.001 to 0.999 nM.

Q: With `CC(C)[C@H](NC(=O)C1CC1)C(=O)N1[C@@H]2C[C@@H]2C[C@H]1c1ncc(-c2ccc(-c3ccc(-c4cnc([C@@H]5C[C@H]6C[C@H]6N5C(=O)[C@@H](NC(=O)C5CC5)C(C)C)[nH]4)cc3)cc2)[nH]1` [Example M141, N((1S)-1-(((1R,3S,SR)-3-(4-(4'-(2-((1R,3S,SR)-2-((2S)-2-((cyclopropylcarbonyl)amino)-3-methylbutanoyl)-2-azabicyclo[3.1.0]hex-3-yl)-1H imidazol-4-y/)-4-biphenyly/)-1H-imidazol-2-yl)-2-azabicyclo[3.1. 0]hex-2-yl)carbonyl)-2-methylpropyl)cyclopropanecarbamate] as the compound, how does the EC50 read?
A: Its EC50 is 1 to 99 nM.

Q: `COC(=O)N[C@H](C(=O)N1[C@@H]2C[C@@H]2C[C@H]1c1nc(-c2ccc(-c3ccc(-c4c[nH]c([C@@H]5CC6C[C@H]6N5C(C)=O)n4)cc3)cc2)c[nH]1)C(C)C` (mixture of isomers) [Example M138, methyl ((1S)-1-(((1R,3S,5R)-3-(4-(4'-(2-((1R,3S,SR)-2-acetyl-2-azabicyclo[3.1.0]hex-3yl)-1Himidazol-4yl)-4-biphenylyl)-1Himidazol-2-yl)-2-azabicyclo[3.1.0]hex-2-yl)carbonyl)-2-methylpropyl)carbamate] was tested. Which EC50 did it give?
A: The EC50 was 0.001 to 0.999 nM.

Q: `Cc1nc([C@@H]2CCCN2C(=O)[C@@H](c2ccccc2)N2CCCCC2)[nH]c1-c1ccc(-c2ccc(-c3[nH]c([C@@H]4CCCN4C(=O)[C@@H](c4ccccc4)N4CCCCC4)nc3C)cc2)cc1` [Example E5i, 1,1'-(4,4'-biphenyldiylbis((4-methyl-1H-imidazole-5,2-diyl)(2S)-2,1-pyrrolidinediyl((1R )-2-oxo-1-phenyl-2,1-ethanediyl)))dipiper idine] was tested. Which EC50 did it give?
A: Its EC50 is 0.001 to 0.999 nM.

Q: How did the EC50 turn out when `CC(C)[C@@H](O)C(=O)N1[C@@H](C)CC[C@H]1c1nc(-c2ccc(-c3ccc(-c4c[nH]c([C@@H]5CC[C@H](C)N5C(=O)[C@H](O)C(C)C)n4)cc3)cc2)c[nH]1` [Example M160, (2R,2'R)-1,1'-(4,4'-biphenyldiylbis(1H-imidazole-4,2-diyl((2S,5S)-5-methyl-2,1-pyrrolidinediyl)))bis(3-methyl-1-oxo-2-butanol)] was run?
A: The EC50 was 1 to 99 nM.

Q: `CCCc1[nH]c([C@@H]2CCCN2C(=O)[C@@H](NC(=O)OC)C(C)C)nc1-c1ccc(-c2ccc(-c3c[nH]c([C@@H]4CCCN4C(=O)[C@@H](NC(=O)OC)C(C)C)n3)cc2)cc1` [Example J14c.2, methyl ((1S)-1-(((2S)-2-(4-(4'-(2-((2S)-1-((2S)-2-((methoxycarbonyl)amino)-3-methylbutanoyl)-2-pyrrolidinyl)-1H-imidazol-4-yl)-4-biphenylyl)-5-propyl-1H-imidazol-2-yl)-1-pyrrolidinyl)carbonyl)-2-methylpropyl)carba mate] was tested. Which EC50 did it give?
A: Its EC50 is 0.001 to 0.999 nM.

Q: `COC(=O)N[C@@H](C(=O)N1[C@@H]2C[C@H]2C[C@H]1c1nc(-c2ccc(-c3ccc(-c4c[nH]c([C@@H]5C[C@@H]6C[C@H]6N5C(=O)[C@H](NC(=O)OC)c5ccccc5)n4)cc3)cc2)c[nH]1)c1ccccc1` (mixture of isomers) [Example M137, dimethyl (4,4'-biphenyldiylbis(1H-imidazole-4,2-diyl(1R,3S,SR)-2-azabicyclo[3.1.0]hexane-3,2-diyl((1R)-2-oxo-1-phenyl-2,1-ethanediyl)))biscarbamate] was tested. Which EC50 did it give?
A: The EC50 was 0.001 to 0.999 nM.

Q: With `COC(=O)N[C@H](C(=O)N1CCC[C@H]1c1nc(-c2ccc(-c3ccc(-c4[nH]c([C@@H]5CCCN5C(=O)[C@@H](NC(=O)OC)C(C)C)nc4CO)cc3)cc2)c[nH]1)C(C)C` [Example J14f, methyl ((1S)-1-(((2S)-2-(4-(hydroxymethyl)-5-(4'-(2-((2S)-1-((2S)-2-((methoxycarbonyl)amino)-3-methylbutanoyl)-2-pyrrolidinyl)-1H-imidazol-4-yl)-4-biphenylyl)-1H-imidazol-2-yl)-1-pyrrolidinyl)carbonyl)-2-methylpropyl)carba mate] as the compound, how does the EC50 read?
A: Its EC50 is 0.001 to 0.999 nM.

Q: With `CC(=O)N1[C@@H](C)CC[C@H]1c1nc(-c2ccc(-c3ccc(-c4cnc([C@@H]5CC[C@H](C)N5C(C)=O)[nH]4)cc3)cc2)c[nH]1` [Example M162, 2-((2S,5S)-1-acetyl-5-methyl-2-pyrrolidinyl)-4-(4'-(2-((2S,5S)-1-acetyl-5-methyl-2-pyrrolidinyl)-1H-imidazol-5-yl)-4-biphenylyl)-1H-imidazole] as the compound, how does the EC50 read?
A: The EC50 was 1 to 99 nM.

— patent EP2242752B1, “[…] IMIDAZOLES AS HEPATITIS C VIRUS INHIBITORS” (Bristol-Myers Squibb Company, priority 2008, dated 2009)
